Molecular target: T1, FLK-1 receptor (Mus musculus, UniProt P35918)
T1 construct: expressed in transfected cells; host or cells: NIH3T3 C7#3
Assay: FLK-1 ELISA (kinase activity of the FLK-1 receptor in FLK-1/NIH3T3 cells, VEGF stimulated)
Assay type: cell-based
Parameters: concentration or dose not given beside the values
How it was run: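 An ELISA using affinity-purified rabbit anti-FLK-1 antiserum on anti-rabbit IgG-coated plates measured VEGF-stimulated FLK-1 kinase activity. NIH3T3 C7#3 cells carrying FLK-1 were serum-starved (0.1% FBS) overnight, then exposed to compound (final 1:200 dilution, 0.5% DMSO) for two hours at 37 °C.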

T1 sequence (P35918 20-1345): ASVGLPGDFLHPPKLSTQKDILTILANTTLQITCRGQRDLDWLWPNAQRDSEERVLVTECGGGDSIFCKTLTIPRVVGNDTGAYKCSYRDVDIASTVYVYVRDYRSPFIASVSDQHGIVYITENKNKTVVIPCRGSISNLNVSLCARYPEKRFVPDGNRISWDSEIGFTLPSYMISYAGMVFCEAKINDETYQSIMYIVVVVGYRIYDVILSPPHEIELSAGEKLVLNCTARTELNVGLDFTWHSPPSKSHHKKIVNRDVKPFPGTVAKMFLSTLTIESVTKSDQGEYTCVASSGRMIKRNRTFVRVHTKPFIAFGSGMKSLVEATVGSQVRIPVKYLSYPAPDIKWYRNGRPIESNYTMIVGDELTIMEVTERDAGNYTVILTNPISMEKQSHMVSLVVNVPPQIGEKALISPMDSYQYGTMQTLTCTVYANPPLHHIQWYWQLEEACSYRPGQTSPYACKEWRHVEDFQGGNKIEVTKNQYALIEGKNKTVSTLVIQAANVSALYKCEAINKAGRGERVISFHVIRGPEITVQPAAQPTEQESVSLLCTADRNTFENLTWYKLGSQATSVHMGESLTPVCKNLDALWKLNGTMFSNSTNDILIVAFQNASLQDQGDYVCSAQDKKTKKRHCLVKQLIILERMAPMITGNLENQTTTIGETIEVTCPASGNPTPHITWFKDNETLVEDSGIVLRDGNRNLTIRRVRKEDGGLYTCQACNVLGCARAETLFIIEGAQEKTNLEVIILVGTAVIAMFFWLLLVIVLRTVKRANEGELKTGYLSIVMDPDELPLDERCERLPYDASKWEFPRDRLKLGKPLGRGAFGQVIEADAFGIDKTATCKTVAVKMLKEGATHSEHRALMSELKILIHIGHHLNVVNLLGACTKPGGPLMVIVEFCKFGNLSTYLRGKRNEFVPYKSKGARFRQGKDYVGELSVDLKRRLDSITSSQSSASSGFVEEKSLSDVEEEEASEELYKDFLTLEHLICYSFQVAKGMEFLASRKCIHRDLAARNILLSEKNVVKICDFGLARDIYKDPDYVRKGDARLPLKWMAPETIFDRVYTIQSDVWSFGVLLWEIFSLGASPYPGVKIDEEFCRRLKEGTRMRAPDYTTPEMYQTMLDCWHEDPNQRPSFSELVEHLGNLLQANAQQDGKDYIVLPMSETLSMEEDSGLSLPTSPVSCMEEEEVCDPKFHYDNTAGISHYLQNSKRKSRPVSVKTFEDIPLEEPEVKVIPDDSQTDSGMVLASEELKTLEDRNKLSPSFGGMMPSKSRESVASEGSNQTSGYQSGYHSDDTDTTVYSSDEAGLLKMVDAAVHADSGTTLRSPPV

SMILES | Fik Kinase %Inhibition [%]
O=C1Nc2ccc(I)cc2C1=CC1C=CCCC1 (stereo not shown) [10729/B11] | 7.8
CNS(=O)(=O)c1ccc2c(c1)C(=Cc1c(OC)ccc3ccccc13)C(=O)N2 [10729/D02] | 12.2
O=C1Nc2c(Br)cc(Br)cc2C1=Cc1ccc([N+](=O)[O-])o1 [10718/A11] | 2.7
O=C1Nc2ccc(I)cc2C1=Cc1ccncc1 [10729/B09] | -16.0
O=C1Nc2ccc(CCCl)cc2C1=Cc1cc(C(F)(F)F)ccc1F [10728/G08] | 21.4
CNS(=O)(=O)c1ccc2c(c1)C(=Cc1cccnc1)C(=O)N2 [10729/D08] | -26.2
CNS(=O)(=O)c1ccc2c(c1)C(=Cc1ccccc1OCC(=O)O)C(=O)N2 [10728/D10] | 17.9
O=C1Nc2ccc(I)cc2C1=Cc1cccc(Oc2ccccc2)c1 [10729/B06] | 2.0
O=C1Nc2ccc(S(=O)(=O)Nc3ccc(C(F)(F)F)cc3)cc2C1=Cc1c(F)cccc1C(F)(F)F [10728/E09] | 9.0
CCOC(=O)c1c(C)[nH]c(C=C2C(=O)Nc3ccc(I)cc32)c1C [10718/B02] | 7.0
O=C1Nc2c(Br)cc(Br)cc2C1=Cc1cccnc1 [10729/A08] | -13.3
O=C1Nc2c(Br)cc(Br)cc2C1=CC1C=CCCC1 (stereo not shown) [10729/A11] | 4.9
COc1cc(C=C2C(=O)Nc3ccc(CCCl)cc32)cc(OC)c1 [10728/G04] | 21.8
COc1ccc(OC)c(C=C2C(=O)Nc3ccc(S(=O)(=O)Nc4ccc(C(F)(F)F)cc4)cc32)c1 [10728/E02] | 5.4
Cc1ccsc1C=C1C(=O)Nc2c(Br)cc(Br)cc21 [10729/A05] | -17.7
COc1cc(N(C)C)ccc1C=C1C(=O)Nc2ccc(CCCl)cc21 [10728/G05] | 9.4
O=C1Nc2c(Br)cc(Br)cc2C1=Cc1ccc(N2CCCC2)cc1 [10729/A10] | 0.7
Cc1c(Br)ccc2c1C(=Cc1ccc(N3CCCC3)cc1)C(=O)N2 [10729/C10] | 2.5
COc1ccc(C=C2C(=O)Nc3ccc(S(=O)(=O)Nc4ccc(C(F)(F)F)cc4)cc32)c2ccccc12 [10729/E03] | 6.9
Cc1ccc(C=C2C(=O)Nc3c(Br)cc(Br)cc32)s1 [10717/A07] | -6.4

SMILES | Fik Kinase %Inhibition [%]
O=C1Nc2c(Br)cc(Br)cc2C1=Cc1ccccn1 [10729/A07] | -10.0
CSc1ccc(C=C2C(=O)Nc3ccc(S(=O)(=O)Nc4ccc(C(F)(F)F)cc4)cc32)cc1 [10729/E04] | 9.7
Cc1c(O)ccc(C=C2C(=O)Nc3c(Br)cc(Br)cc32)c1O [10718/A09] | -18.4
CNS(=O)(=O)c1ccc2c(c1)C(=Cc1cc(C(F)(F)F)ccc1F)C(=O)N2 [10728/D08] | 13.5
CSc1ccc(C=C2C(=O)Nc3ccc(I)cc32)cc1 [10729/B04] | 0.1
COc1ccc2ccccc2c1C=C1C(=O)Nc2c(Br)cc(Br)cc21 [10729/A02] | 15.5
COc1cc(C=C2C(=O)Nc3ccc(CCCl)cc32)cc2c1OCO2 [10728/G11] | 3.2
CNS(=O)(=O)c1ccc2c(c1)C(=Cc1ccc(SC)cc1)C(=O)N2 [10729/D04] | -5.7
Cc1ccsc1C=C1C(=O)Nc2ccc(S(=O)(=O)Nc3ccc(C(F)(F)F)cc3)cc21 [10729/E05] | 46.8
COc1ccc2ccccc2c1C=C1C(=O)Nc2ccc(I)cc21 [10729/B02] | 13.8
CNS(=O)(=O)c1ccc2c(c1)C(=CC1C=CCCC1)C(=O)N2 (stereo not shown) [10729/D11] | -2.0
O=C1Nc2ccc(S(=O)(=O)Nc3ccc(C(F)(F)F)cc3)cc2C1=Cc1ccc2c(c1)Cc1ccccc1-2 [10728/E06] | 6.6
CNS(=O)(=O)c1ccc2c(c1)C(=Cc1ccncc1)C(=O)N2 [10729/D09] | -9.6
O=C1Nc2ccc(CCCl)cc2C1=Cc1cccc(C(F)(F)F)c1F [10728/G07] | 22.6
CNS(=O)(=O)c1ccc2c(c1)C(=Cc1ccccn1)C(=O)N2 [10729/D07] | -15.3
CNS(=O)(=O)c1ccc2c(c1)C(=Cc1cccc(Oc3ccccc3)c1)C(=O)N2 [10729/D06] | 0.2
COc1cc(N(C)C)ccc1C=C1C(=O)Nc2ccc(S(=O)(=O)Nc3ccc(C(F)(F)F)cc3)cc21 [10728/E05] | 17.4
CNS(=O)(=O)c1ccc2c(c1)C(=Cc1ccc(N3CCCC3)cc1)C(=O)N2 [10729/D10] | 4.1
O=C1Nc2c(Br)cc(Br)cc2C1=Cc1cccc(Oc2ccccc2)c1 [10729/A06] | -10.9
CSc1ccc(C=C2C(=O)Nc3c(Br)cc(Br)cc32)cc1 [10729/A04] | -4.0

Source: patent EP1247803A2, “Indolinone compounds suitable for modulation of protein kinases” (Sugen, Inc., priority 1996, dated 1998)
